From article PMC11674800, “Second-Generation Antipsychotics Induce Metabolic Disruption in Adipose Tissue-Derived Mesenchymal Stem Cells Through an aPKC-Dependent Pathway” (Cells, 2024)

Legend:
Format in all cases: cell-based, human
[1] = test system: PPARG, FABP4, HSL, and LPL; experiment: Adipogenic gene expression (real-time PCR); settings: differentiated cells cotreated with 5 µM
Procedure: After treatment, RNA was extracted using the phenol/chloroform method (RNAzol, Sigma-Aldrich, Saint Louis, MO, USA) followed by isopropanol precipitation, according to the manufacturer’s instructions. The precipitated RNA was then washed with 75% ice-cold ethanol and resuspended in water. The RNA concentration was measured using NanoDrop 2000. cDNA was synthesized via reverse transcription using recombinant Moloney murine leukemia virus reverse transcriptase (MultiScribe Reverse Transcriptase, Bio-Rad, Hercules, CA, USA) and the iScript cDNA Synthesis Kit (Bio-Rad, Hercules, CA, USA). Gene expression was analyzed using real-time PCR using the SsoAdvanced Universal SYBR Green Supermix Kit (Bio-Rad, Hercules, CA, USA). Relative quantification was calculated using the ΔΔCt method.

INSRβ signaling in ADSCs = experiment: Insulin signaling Western blot / INSRβ immunoprecipitation; settings: 5 μM, 16 h
Procedure: (§1) After treatments, whole-cell lysates were prepared using RIPA lysis buffer supplemented with protease inhibitors (AEBSF, aprotinin, bestatin, E-64, EDTA, leupeptin, Sigma-Aldrich, Saint Louis, MO, USA) and orthovanadate (Sigma-Aldrich, Saint Louis, MO, USA). The proteins in the lysates were collected and quantified using the Pierce BCA protein assay kit (Thermo Fisher Scientific, Waltham, MA, USA). Subsequently, the proteins were denatured by heating at 95 °C for 5 min in the presence of 2% Sodium Dodecyl Sulfate (SDS, Sigma-Aldrich, Saint Louis, MO, USA), 150 mM dithiothreitol (DTT, Sigma-Aldrich, Saint Louis, MO, USA), and 0.01% bromophenol blue (Sigma-Aldrich, Saint Louis, MO, USA). The samples were then analyzed using SDS-PAGE (SDS-Polyacrylamide Gel Electrophoresis) and Western blotting (WB).
Following treatment, the cells were stimulated with insulin at 50 ng/mL for 15 min. For the immunoprecipitation of the insulin receptor beta subunit (INSRβ), cell lysates were prepared using RIPA lysis buffer with protease inhibitors, as described previously. The lysates were then incubated for 1 h with magnetic beads (Dynabeads Protein G, Thermo Fisher Scientific, Waltham, MA, USA) that had been previously bound to anti-INSRβ antibody, following the manufacturer’s instructions. After incubation, the beads were washed three times with RIPA buffer to remove non-specifically bound proteins. The immunoprecipitated proteins bound to the beads were then eluted by boiling the beads at 95 °C for 5 min in the presence of 2% SDS, 150 mM DTT, and 0.01% bromophenol blue. The eluted proteins were analyzed using SDS-PAGE and, subsequently, using WB.

INSRβ = INSRβ endocytosis assay and immunofluorescence localization; settings: 5 μM, 16 h; 15 min insulin stimulation
Procedure: ADSCs were seeded at a density of 100,000 cells/well in a 6-well plate. The protocol was carried out as described in Barrow-McGee et al., 2015 [33]. Cell surface proteins were labeled by incubating the cells with 0.2 mg/mL sulpho-NHS-SS-biotin (Sigma-Aldrich, Saint Louis, MO, USA) in PBS for 45 min on ice. Labeled cells were then washed with cold PBS and incubated at 37 °C in a culture medium containing insulin at 50 ng/mL to allow for INSR trafficking. At the indicated times, the medium was removed and the dishes were transferred to ice and washed with cold PBS. Biotin was removed from the proteins that remained at the cell surface via reduction for 15 min with 180 mM of the membrane-impermeant reducing agent MesNa (sodium 2 mercaptoethane sulphonate, Sigma-Aldrich, Saint Louis, MO, USA) in 50 mM Tris and 100 mM NaCl at pH 8.6. MesNa was quenched by adding 180 mM iodoacetamide (IAA, Sigma-Aldrich, Saint Louis, MO, USA) for 10 min. The cells were lysed using RIPA buffer as previously described. The proteins were quantified using BCA; equal protein amounts received streptavidin–agarose beads (Sigma-Aldrich, Saint Louis, MO, USA) and were agitated at 4 °C for 2 h. Then, the beads were collected via centrifugation (7000× g) and washed in lysis buffer, and the proteins were extracted by heating at 95 °C with sample buffer. In each internalization assay, two controls were carried out. To measure INSRβ at the surface, biotinylated cells at 4 °C were lysed without biotin reduction (Ts). To verify the efficiency of the surface biotin removal, the biotin reduction and MesNa-quenching steps were carried out on cells that had remained on ice (T0). Then, lysis was carried out. All lysates were analyzed via Western blot.
The percentages of internalized INSR were calculated using the following formula: internalized receptor = (receptor level after incubation at 37 °C) − (receptor level at time 0)/(total surface receptor) × 100. All samples were normalized on the input INSR signal.
For INSRβ endocytosis experiments, the cells were stimulated with 50 ng/mL insulin for 15 min. For transferrin endocytosis experiments, the cells were incubated with 25 μg/mL Transferrin Texas Red for 5 min. After treatment, the cells were washed with PBS and fixed with 4% PFA for 10 min at room temperature, followed by an additional PBS wash. The cells were then permeabilized by incubating them with cold HEPES-Triton X-100 buffer for 5 min at 4 °C. […] Images were acquired using a confocal microscope (Leica TCS SP8, Wetzlar, Germany) and analyzed using ImageJ (v 1.52a) software in order to quantify and analyze the fluorescence signals.

ADSCs [2] = experiment: Transferrin uptake (clathrin-dependent endocytosis); settings: 16 h treatment; transferrin 5 min
Procedure: (§2) For INSRβ endocytosis experiments, the cells were stimulated with 50 ng/mL insulin for 15 min. For transferrin endocytosis experiments, the cells were incubated with 25 μg/mL Transferrin Texas Red for 5 min. After treatment, the cells were washed with PBS and fixed with 4% PFA for 10 min at room temperature, followed by an additional PBS wash. The cells were then permeabilized by incubating them with cold HEPES-Triton X-100 buffer for 5 min at 4 °C. After permeabilization, the cells were incubated with primary antibodies for 30 min, followed by incubation with Alexa Fluor 488- or 546-conjugated secondary antibodies (Invitrogen, Waltham, MA, USA) and phalloidin, labeled with either Alexa Fluor 546 or 633 (Invitrogen Waltham, MA, USA) for 30 min. After incubation, coverslips were mounted on glass slides using a mounting medium. Images were acquired using a confocal microscope (Leica TCS SP8, Wetzlar, Germany) and analyzed using ImageJ (v 1.52a) software in order to quantify and analyze the fluorescence signals.

ADSCs [3] = experiment: Acidic vesicle quantification (Lysotracker)
Procedure: After treatment, the medium was removed, and the cells were stained with 50 nM Lysotracker Deep Red (Invitrogen, Waltham, MA, USA) and 5 μg/mL Hoechst 33342 (Sigma). Staining was conducted in the dark at 37 °C for 30 min. Fluorescence signals were captured using a FLoid Cell Imaging Station (Life Technology, Carlsbad, CA, USA). The ratio of Lysotracker red signal to blue nuclear signal was quantified using ImageJ software. For acidic vesicle rescue experiments, ADSCs were plated at a concentration of 10,000 cells per well in 48-well plates.

TFEB = TFEB nuclear localization (confocal microscopy); settings: 5 μM, 16 h; compared to untreated cells
Procedure: as §2

cathepsin B = experiment: Cathepsin B Western blot; settings: 5 μM, 16 h
Procedure: as §1

Cc1cc2c(s1)Nc1ccccc1N=C2N1CCN(C)CC1 [olanzapine]
expression of genes related to adipogenesis (PPARG, FABP4, HSL, LPL) [1]: significantly reduced expression | phosphorylated INSRβ serine residues (INSRβ signaling in ADSCs; basal and after insulin stimulation): increased levels | INSRβ tyrosine phosphorylation (P-INSRβ Y1146) (INSRβ signaling in ADSCs; insulin 50 ng/mL): reduction | P-AKT T308, P-AKT S473, and P-ERK T202/Y204 (INSRβ signaling in ADSCs; insulin 50 ng/mL): decrease | INSRβ colocalization in LAMP1-positive lysosomes (INSRβ): unaffected | INSRβ internalization (INSRβ): significant reduction | INSRβ localization in CD63-positive recycling endosomes (INSRβ): reduced | localization of INSRβ in RAB7-positive late endosomes (INSRβ): significantly increased localization | short-term transferrin endocytosis (ADSCs [2]): significant reduction | acidic compartment accumulation (Lysotracker staining) (ADSCs [3]): progressive time- and dose-dependent increase | concentrations at which acidic compartment accumulation was observed (ADSCs [3]): below 1 µM | increase in TFEB nuclear localization (TFEB): 50% | levels of cathepsin B (cathepsin B): elevated levels
